We go through four compounds from paper PMC2409716 (British Journal of Cancer, 2004).

The test system of data set [1] is patients with a solid malignancy. Briefly: Phase I toxicity evaluation (NCI common toxicity criteria v2.0, DLT/MTD) of irinotecan with oral R115777. Format: in vivo, human. As for the experimental part:
In the continuous regimen, R115777 was administered on days 3–21 of cycle 1, and then continuously thereafter, starting again on day 1 of subsequent cycles. In the intermittent regimen, R115777 was administered on days 3–14 of the first cycle, and then starting again on day 1 of subsequent cycles, but without administration on days 15–21.
Three patients were accrued at the starting dose level, and in the absence of DLT, another three patients were entered at the next dose level. For safety reasons, the next dose level was not opened until at least three patients were assessable for toxicity in the first cycle. In case only one patient developed DLT (see below), the dose level was expanded with additional patients to a total of six. […] The MTD (recommended dose) was defined as one dose level below the level at which ⩾2 of six patients experienced DLT.
Toxicity was assessed by the National Cancer Institute Version 2.0 common toxicity criteria on a scale graded 0–4 (Available: http://ctep.cancer.gov/reporti ng/ctc.html (accessed: February 27, 2004)). […] Tumours were assessed radiologically before patients were enrolled on the study, and after every even-numbered cycle. […]

For data set [2] the following is noted: human, in vivo, 350 mg.
For data set [3] the following is noted: human, in vivo.
Data set [4] is described as follows: clinical. The conditions noted are these: human.
The next data set deals with CYP3A4. On the set-up: method as in Bohets, 1998. The conditions noted are these: human hepatic microsomal preparations; at in vitro concentrations five-fold higher than the peak concentrations observed in the present study; ref Bohets, 1998; cited from earlier work.
Another data set has as its system ABCB1 (P-glycoprotein). On the set-up: method as in earlier work. The conditions noted are these: ref unpublished data, Johnson & Johnson Pharmaceutical Research and Development, cited from earlier work.
Another data set concerns UGT1A. The conditions noted are these: 2002, cited from earlier work.
Data set [5] can be described thus: clinical. The conditions noted are these: human, plasma, po.
Data set [6] can be described thus: Noncompartmental plasma pharmacokinetics of R115777 with/without irinotecan. The conditions noted are these: for AUC12 h Ratio (R115777 with irinotecan to R115777 alone) / Cmax Ratio (R115777 with irinotecan to R115777 alone): least-squares means, 90% confidence limits in parentheses; for tmax: median.
Data set [7] is described as follows: Noncompartmental plasma pharmacokinetics of irinotecan and SN-38 with/without R115777.
On the set-up of data set [8]: method as in earlier work. The conditions noted are these: ref unpublished data, Johnson & Johnson Pharmaceutical Research and Development, cited from earlier work.
The mark [9] stands for this setting: Intermittent, oral R115777 200–400 mg b.i.d., dose-normalised to 200 mg, (+) Irinotecan 350 mg m^−2, mean±s.d., 12–13 patients.
Setting [10] is: continuous, relative to monotherapy, not significant.
The mark [11] stands for this setting: intermittent regimens, not statistically significant.
[12] abbreviates: preclinical studies, ref Gagne et al.
Setting [13] is: Continuous, (+) R115777 200 mg b.i.d. (cycle 2), irinotecan 200–350 mg m^−2, dose-adjusted to 350 mg m^−2, mean±s.d., 11–13 patients.

Like-named read-outs stand apart in the source and are kept apart here.

Consider `CCc1c2c(nc3ccc(OC(=O)N4CCC(N5CCCCC5)CC4)cc13)-c1cc3c(c(=O)n1C2)COC(=O)[C@]3(O)CC` [irinotecan], for which, in [1] (given every 3 weeks, with R115777 300 mg b.i.d. for 14 consecutive days), the “MTD (irinotecan dose in the combination)” value is listed as 350 mg m^−2. For the same compound, the AUC48 h in data set [2] was 20 270±6020 ng h ml^−1. For the same compound, in data set [3], the “AUCcar Mean diff” value was -1950 ± 641 ng·h/mL and the “AUClac Mean diff” value was -269 ± 101 ng·h/mL. Also, the Cmax (in general, the highest concentration seen after dosing) in “clinical [4]” (in vivo) was determined as 3620 ± 632 ng/mL.
`Cn1cncc1[C@@](N)(c1ccc(Cl)cc1)c1ccc2c(c1)c(-c1cccc(Cl)c1)cc(=O)n2C` [R115777, (R)-6-[amino(4-chlorophenyl)(1-methyl-1H-imidazol-5-yl)methyl]-4-(3-chloro-phenyl)-1-methyl-2(1H)-quinolinone]: in [1] (oral, 14 consecutive days in 21-day cycles, with irinotecan 350 mg m^−2 every 3 weeks), the “MTD (R115777 dose in the combination)” value stood at 300 mg b.i.d. In addition, the “effect on CYP3A4 activity” value in the data set with CYP3A4 is on record as “inhibit CYP3A4 activity”. Moreover, the “inhibition of P-glycoprotein” value in the data set on ABCB1 (P-glycoprotein) (at physiologically relevant concentrations) is listed as “does not significantly inhibit”. Also, the ABCB1 substrate result with ABCB1 (P-glycoprotein) (preliminary data) is given as “not likely to be a substrate”. Also, in the data set with UGT1A (ref Mannens et al), the “isozyme with a minor role in N-glucuronidation” value is “UGT1A3” and the “prominent isozyme producing the N-glucuronide” value is “UGT1A4”. The compound further registered a tmax in “clinical [5]” of 2.1 h. In “clinical [5]” (200 mg), the AUC(0-t) (usually exposure summed from dosing to a finite time, without extrapolation to infinity) amounted to 3240 ± 1590 ng·h/mL; the peak level (Cmax) was 840 ± 551 ng/mL; the tmax stood at 2 h. Besides, in data set [6] (Continuous), the “AUC12 h Ratio (R115777 with irinotecan to R115777 alone)” value was 101 (68–149) percent and the “Cmax Ratio (R115777 with irinotecan to R115777 alone)” value is 93 (63–137) percent. The Cmax in [6] (Continuous, oral R115777 200 mg b.i.d., (+) Irinotecan 200–350 mg m^−2, mean±s.d., 11–13 patients) is 735 ± 377 ng/mL. For the same compound, in data set [6] (Intermittent), the “AUC12 h Ratio (R115777 with irinotecan to R115777 alone)” value was 109 (93–127) percent and the “Cmax Ratio (R115777 with irinotecan to R115777 alone)” value is 106 (89–126) percent. For the same compound, in data set [6] (setting [9]), the AUC12 h turned out to be 3170 ± 1550 ng·h/mL and the Cmax is 663 ± 296 ng/mL. Moreover, the tmax in data set [6] (Intermittent, oral R115777 200–400 mg b.i.d., (+) Irinotecan 350 mg m^−2, 12–13 patients) is recorded as 2.0 h. Besides, the tmax in [6] (Intermittent, oral R115777 200–400 mg b.i.d., (−) Irinotecan, 12–13 patients) is listed as 2.0 h. In [6] (after oral administration, with or without co-administration of irinotecan), the “time at which peak plasma concentrations were observed” value is listed as 2 h. Besides, in [6] (setting [10]), the “decrease in the peak concentration in the combination therapy” value came out at 7.0% and the “increase in AUC in the combination therapy” value turned out to be 1.0%. For the same compound, in data set [6] (setting [11]), the “increase in AUC following administration of irinotecan” value came out at 9.0% and the “increase in peak concentration following administration of irinotecan” value turned out to be 6.0%.
For `CCc1c2c(nc3ccc(O)cc13)-c1cc3c(c(=O)n1C2)COC(=O)[C@]3(O)CC` [SN-38, 7-ethyl-10-hydroxycamptothecin], in [3], the “AUCcar Mean diff” value is -26.7 ± 10.1 ng·h/mL; the “AUClac Mean diff” value is -59.7 ± 34.7 ng·h/mL; the “REClac (relative extent of conversion, AUCSN-38/AUCirinotecan × 100%, lactone)” value is reported as 6.91±3.05%; the “REClac Mean diff” value is listed as −0.57±0.50%. Further, in data set [3], the “RECtotal (relative extent of conversion, AUCSN-38/AUCirinotecan × 100%, total)” value was 2.72±1.02% and the “RECtotal Mean diff” value is −0.09±0.13%. In the data set with UGT1A (setting [12]), the “isozymes with a minor role in glucuronidation” value is “UGT1A6, UGT1A8, and UGT1A10”; the “major isozymes involved in glucuronidation” value is “UGT1A1, UGT1A7, and UGT1A9”. For the same compound, in “clinical [4]” (in vivo), the half-life (in general, the time needed for the level to fall by half in the phase considered) was 13.4 ± 4.44 h. This compound gave a half-life in “clinical [4]” (in vivo, 350 mg) of 18.1 ± 13.1 h. Moreover, in the data set “clinical [4]” (plasma, intravenous), the Cmax is 41.5 ± 20.1 ng/mL. In “clinical [4]” (plasma, intravenous, 350 mg), this compound returned an exposure AUC(0-t) of 326 ± 134 ng·h/mL. For the same compound, in data set [7] (setting [13]), the AUC48 h was found to be 569 ± 328 ng·h/mL and the Cmax amounted to 70.2 ± 49.6 ng/mL. In data set [7] (Continuous, (−) R115777 (cycle 1), irinotecan 200–350 mg m^−2, dose-adjusted to 350 mg m^−2, mean±s.d., 11–13 patients), this compound came in with a Cmax of 63.4 ± 37.4 ng/mL. Besides, in [7] (Intermittent, (+) R115777 200–400 mg b.i.d. (cycle 2), irinotecan 350 mg m^−2, mean±s.d., 13 patients), the AUC48 h is 375 ± 146 ng·h/mL.
As for `CC(=O)O[C@@]12CO[C@@H]1C[C@H](O)[C@@]1(C)C(=O)[C@H](O)C3=C(C)[C@@H](OC(=O)[C@H](O)[C@@H](NC(=O)OC(C)(C)C)c4ccccc4)C[C@@](O)([C@@H](OC(=O)c4ccccc4)[C@H]21)C3(C)C` [docetaxel], in data set [8] (continuous R115777 (200 mg b.i.d.), subset of subjects), the “plasma AUC of docetaxel” value is “relatively unchanged”. For the same compound, the “effect of R115777 on the systemic exposure to docetaxel” value in [8] (single-dose administration of R115777 (200 or 300 mg)) is “little effect”.
